pIC50: −log10 of the molar value.
Experiments:
Acetylcholinesterase [1] = biological target: T1, Acetylcholinesterase (Homo sapiens, UniProt P22303)
Description: Experimental pIC50 values for the inhibition of acetylcholinesterase

Acetylcholinesterase [2] = biological target: T1, Acetylcholinesterase; remark: listed apart in the source
Description: Inhibitory activity against human erythrocyte acetylcholinesterase

T1 sequence (P22303 whole entry): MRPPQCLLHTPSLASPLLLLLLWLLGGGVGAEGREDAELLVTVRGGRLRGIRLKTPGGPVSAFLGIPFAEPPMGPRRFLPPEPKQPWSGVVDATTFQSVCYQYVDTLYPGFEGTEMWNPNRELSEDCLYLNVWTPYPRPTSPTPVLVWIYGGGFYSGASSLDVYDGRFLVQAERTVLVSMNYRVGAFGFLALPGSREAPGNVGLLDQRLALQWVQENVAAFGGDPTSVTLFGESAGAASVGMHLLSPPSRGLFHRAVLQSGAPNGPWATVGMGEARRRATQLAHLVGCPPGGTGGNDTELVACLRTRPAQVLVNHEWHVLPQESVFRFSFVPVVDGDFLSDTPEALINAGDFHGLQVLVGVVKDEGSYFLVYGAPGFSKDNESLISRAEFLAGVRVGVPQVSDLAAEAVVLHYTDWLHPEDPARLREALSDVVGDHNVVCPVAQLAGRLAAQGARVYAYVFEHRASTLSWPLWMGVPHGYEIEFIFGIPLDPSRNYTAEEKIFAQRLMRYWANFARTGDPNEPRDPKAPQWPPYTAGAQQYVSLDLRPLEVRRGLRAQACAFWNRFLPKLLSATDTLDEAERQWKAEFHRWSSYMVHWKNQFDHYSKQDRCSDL

Compound | pIC50 (Acetylcholinesterase [1]) | pIC50 (Acetylcholinesterase [2])
Nc1c2c(nc3ccccc13)-c1ccc(F)cc1C2 | 6.36 | 
CCCCCCCNc1c2c(nc3cc([N+](=O)[O-])ccc13)CCCC2 | 6.53 | 6.54
COc1ccc2c(N)c3c(nc2c1)CCCC3 | 6.45 | 6.46
O=[N+]([O-])c1ccc2nc3c(c(NCc4ccccc4)c2c1)CCCC3 | 5.80 | 5.80
Clc1ccc2c(NCc3ccccc3)c3c(nc2c1)CCCC3 | 6.77 | 6.77
Nc1c2c(nc3cc(Cl)ccc13)-c1ccccc1C2 | 5.18 | 
CCCCCCCNc1c2c(nc3cc(Cl)ccc13)CCCC2 | 7.88 | 7.89
Nc1c2c(nc3ccc([N+](=O)[O-])cc13)CCCC2 | 5.52 | 5.52
Cc1ccc2c(N)c3c(nc2c1)CCCC3 | 7.00 | 7.00
CCCCCCCNc1c2c(nc3cc(C)ccc13)CCCC2 | 6.89 | 6.89
Nc1ccc2nc3c(c(N)c2c1)CCCC3 | 5.42 | 5.42
O=[N+]([O-])c1ccc2c(NCc3ccccc3)c3c(nc2c1)CCCC3 | 5.32 | 5.32
Nc1c2c(nc3cc(F)ccc13)CCCC2 | 7.06 | 7.06
CCCCCCCNc1c2c(nc3cc(F)ccc13)CCCC2 | 7.34 | 7.35
CCCCCCCNc1c2c(nc3ccc(C)cc13)CCCC2 | 6.41 | 6.41
Nc1c2c(nc3cc(Br)ccc13)CCCC2 |  | 7.18
COc1cc2nc3c(c(N)c2cc1OC)CCCC3 | 5.29 | 5.28
Nc1c2c(nc3cc(Cl)c(Cl)cc13)CCCC2 | 6.32 | 6.33
CCCCCCCNc1c2c(nc3cc(OC)ccc13)CCCC2 | 6.33 | 6.34
Nc1c2c(nc3ccc(Cl)cc13)CCCC2 | 6.26 | 6.26
Cc1ccc2nc3c(c(N)c2c1)CCCC3 | 5.09 | 5.09
Cc1ccc2c(NCc3ccccc3)c3c(nc2c1)CCCC3 | 6.13 | 6.12
COc1cccc2c1Cc1c-2nc2ccccc2c1N | 5.78 | 
Cc1ccc2nc3c(c(NCc4ccccc4)c2c1)CCCC3 | 5.43 | 5.43

— ChEMBL document CHEMBL1133184, “SAR of 9-amino-1,2,3,4-tetrahydroacridine-based acetylcholinesterase inhibitors: synthesis, enzyme inhibitory activity, QSAR, and structure-based CoMFA of tacrine analogues” (J Med Chem, 2000)
